Measured values published in US11685714B2, “Prodrugs of cytotoxic active agents having enzymatically cleavable groups” (BAYER PHARMA AKTIENGESELLSCHAFT, priority 2016, dated 2023).

What was measured:
[1] = Stability in rat liver lysosomes (chapter C1c); assay type: in vitro ADME
[2] = system: NCI-H292: human mucoepidermoid lung carcinoma cells; assay: MTT assay on NCI-H292; assay type: cell-based; conditions: NCI-H292, 96 h, growth inhibition, 96 h incubation
Method: (§1) The analysis of the cytotoxic effects of the ADCs was carried out with various cell lines:
(§2) The cells were cultivated by the standard method as stated by the American Tissue Culture Collection (ATCC) or the Leibniz-lnstitut DSMZ-Deutsche Sammlung von Mikroorganismen und Zellkulturen GmbH (DSMZ) for the cell lines in question.
(§3) The cells were then incubated in an incubator at 37° C. and 5% carbon dioxide. […] To this end, the MTT reagent was incubated with the cells for 4 h, followed by lysis of the cells overnight by addition of the detergent. […] The measured data were used to calculate the ICo50 of the growth inhibition using the DRC (dose response curve). The proliferation of cells which were not treated with test substance but were otherwise identically treated was defined as the 100% figure.

[3] = system: SK-HEP-1: human liver cell cancer line; assay: MTT assay on SK-HEP-1; assay type: cell-based; conditions: SK-HEP1, 96 h, growth inhibition, 96 h incubation
Method: as §1, §2, §3

[4] = Assay for determination of stability in rat liver lysosomes; assay type: in vitro ADME; conditions: over 24 h, 37° C.
Method: To determine the lysosomal stability of compounds A and B, lysosomal enzymes were isolated from rat liver cells. Compounds A and B were each added to this lysosomal extract in order to examine stability under lysosomal conditions. The proteolytic enzyme legumain is expressed only in a very small amount, if any, in rat liver lysosomes (Chen, J-M. et al 1997). To monitor the enzymatic activity of the lysosomal enzymes, a cathepsin-specific substrate was added.
First of all, a fresh rat liver was removed, weighed and immediately placed on ice in homogenization medium (0.25 M sucrose, 1 mM EDTA, 10 mM HEPES, pH7). The liver was comminuted and a change of medium was undertaken. The rat livers were homogenized with 4 times the amount of the rat liver weight at 750 rpm in a Potter (B. Braun). The homogenate was centrifuged at 1000 g for 10 min and the supernatant was filtered. In the next step, with the aid of an ultracentrifuge, the “light mitochondrial fraction” (LMF) was centrifuged out of the supernatant at 26 500 g over 20 min. […]
The sucrose was added from a 2.3 M stock solution of the particular percentage. […] To monitor the lysis, the protein content of the lysed lysosomal fraction was monitored with the aid of a BCA assays (Pierce BCA protein assay kit). […] For the RP-HPLC LCMS analysis, the samples were diluted with 300 μl of 10 mM ammonium acetate buffer (pH 6.8) and analysed.

[5] = target: T1, motor domain of the human kinesin spindle protein KSP/Eg5 (Homo sapiens, UniProt P52732); assay: Inhibition of the kinesin spindle protein KSP/Eg5 (ATPase activity, malachite green); assay type: biochemical; conditions: 10 nM KSP/Eg5, microtubuli, 500 μM ATP, 2 h at RT
T1 construct: The motor domain of the human kinesin spindle protein KSP/Eg5; purchased tebu-bio/Cytoskeleton Inc 027EG01-XL
T1 sequence (P52732 18-359 limits assumed): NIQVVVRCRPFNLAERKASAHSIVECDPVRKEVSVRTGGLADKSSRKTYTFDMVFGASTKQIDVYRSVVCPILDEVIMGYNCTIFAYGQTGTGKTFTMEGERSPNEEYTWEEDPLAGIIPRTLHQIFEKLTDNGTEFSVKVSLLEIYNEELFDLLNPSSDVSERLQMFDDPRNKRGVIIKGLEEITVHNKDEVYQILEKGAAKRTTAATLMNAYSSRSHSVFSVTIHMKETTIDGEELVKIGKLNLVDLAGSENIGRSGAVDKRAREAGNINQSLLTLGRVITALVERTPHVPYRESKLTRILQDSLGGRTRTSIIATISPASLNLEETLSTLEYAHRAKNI
Method: The motor domain of the human kinesin spindle protein KSP/Eg5 (tebu-bio/Cytoskeleton Inc, No. 027EG01-XL) was incubated in a concentration of 10 nM with microtubuli (bovine or porcine, tebu-bio/Cytoskeleton Inc) stabilized with 50 μg/ml taxol (Sigma No. T7191-5MG) for 5 min at RT in 15 mM PIPES, pH 6.8 (5 mM MgCl2 and 10 mM DTT, Sigma). […] Incubation was at RT for 2 h. ATPase activity was detected by detecting the inorganic phosphate formed using malachite green (Biomol). […] The positive controls used were monastrol (Sigma, M8515-1 mg) and ispinesib (AdooQ Bioscience A10486). The individual data of the dose-activity curve are eight-fold determinations. The IC50 values are means of two independent experiments.

Question: Which “stability in rat liver lysosomes (in words)” value [1] does the source give for `CNC(=O)[C@H](CCN(C(=O)CO)[C@@H](c1cc(-c2cc(F)ccc2F)cn1Cc1ccccc1)C(C)(C)C)NC(=O)[C@H](CC(N)=O)NC(=O)[C@@H](C)NC(=O)[C@H](C)NC(=O)Cc1ccncc1` [Example R3r-LDL, N-(Pyridin-4-ylacetyl)-L-alanyl-D-alanyl-N^1-[(2S)-4-[{(1R)-1-[1-benzyl-4-(2,5-difluorophenyl)-1H-pyrrol-2-yl]-2,2-dimethylpropyl}(glycoloyl)amino]-1-(methylamino)-1-oxobutan-2-yl]-L-aspartamide] here?
Answer: high stability

Question: What about the IC50 [2] of the same compound?
Answer: 190 nM

Question: And the IC50 [3]?
Answer: 283 nM

Question: What about the “stability in rat liver lysosomal extract” value [4] of the same compound?
Answer: stable

Question: What about the IC50 [5] of the same compound?
Answer: 264 nM
